Measurements as given in the supplement of paper PMC10307832.

Assays:
Test in all cases: relative viability (nuclei count vs DMSO), 5 days (fraction); higher = more cells survive
[1] = system: LOU-NH91
Method in brief: (§1)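 Five library-drug doses in √10 steps were combined with a fixed anchor-drug dose, or a single drug was given alone, by pin tool to lung cancer cell lines in 1536-well plates the day after seeding. Nuclei were stained and counted after 5 days. Relative viability is the nuclei count in treated wells over that in vehicle wells, taken as the median of duplicate plates.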

[2] = system: NCI-H1666
Method in brief: as §1

[3] = system: NCI-H647
Method in brief: as §1

[4] = system: NCI-H2170
Method in brief: as §1

[5] = system: EKVX
Method in brief: as §1

[6] = system: SK-MES-1
Method in brief: as §1

[7] = system: HOP-62
Method in brief: as §1

[8] = system: BEN
Method in brief: as §1

[9] = system: NCI-H661
Method in brief: as §1

[10] = system: NCI-H727
Method in brief: as §1

Question: With `Cc1csc(=NC2CCCCC2)n1/N=C/c1ccc(O)c(O)c1O` [MIM1] + CS(=O)(=O)CCNCc1ccc(-c2ccc3ncnc(Nc4ccc(OCc5cccc(F)c5)c(Cl)c4)c3c2)o1 [Lapatinib] (partner 2 µM) as the compound, how does the relative viability ([1]; first compound 0.2 µM) read?
Answer: The relative viability was 0.744.

Question: And the relative viability ([1]; first compound 0.6325 µM)?
Answer: The relative viability was 0.8.

Question: What about the relative viability ([1]; first compound 2 µM) of the same compound?
Answer: The relative viability was 0.645.

Question: And the relative viability ([1]; first compound 6.325 µM)?
Answer: The relative viability was 0.625.

Question: And the relative viability ([1]; first compound 20 µM)?
Answer: The relative viability was 0.362.

Question: What about the relative viability ([2]; first compound 0.2 µM) of the same compound?
Answer: The relative viability was 0.662.

Question: What about the relative viability ([2]; first compound 0.6325 µM) of the same compound?
Answer: The relative viability was 0.577.

Question: What about the relative viability ([2]; first compound 2 µM) of the same compound?
Answer: The relative viability was 0.507.

Question: What about the relative viability ([2]; first compound 6.325 µM) of the same compound?
Answer: The relative viability was 0.362.

Question: And the relative viability ([2]; first compound 20 µM)?
Answer: The relative viability was 0.206.

Question: What about the relative viability ([3]; first compound 0.2 µM) of the same compound?
Answer: The relative viability was 1.03.

Question: And the relative viability ([3]; first compound 0.6325 µM)?
Answer: The relative viability was 1.04.

Question: And the relative viability ([3]; first compound 2 µM)?
Answer: Its relative viability is 1.02.

Question: What about the relative viability ([3]; first compound 6.325 µM) of the same compound?
Answer: Its relative viability is 0.633.

Question: What about the relative viability ([3]; first compound 20 µM) of the same compound?
Answer: The relative viability was 0.104.

Question: And the relative viability ([4]; first compound 0.2 µM)?
Answer: Its relative viability is 0.282.

Question: What about the relative viability ([4]; first compound 0.6325 µM) of the same compound?
Answer: Its relative viability is 0.294.

Question: What about the relative viability ([4]; first compound 2 µM) of the same compound?
Answer: Its relative viability is 0.26.

Question: And the relative viability ([4]; first compound 6.325 µM)?
Answer: The relative viability was 0.267.

Question: What about the relative viability ([4]; first compound 20 µM) of the same compound?
Answer: Its relative viability is 0.258.

Question: And the relative viability ([5]; first compound 0.2 µM)?
Answer: The relative viability was 0.186.

Question: What about the relative viability ([5]; first compound 0.6325 µM) of the same compound?
Answer: Its relative viability is 0.221.

Question: What about the relative viability ([5]; first compound 2 µM) of the same compound?
Answer: The relative viability was 0.179.

Question: What about the relative viability ([5]; first compound 6.325 µM) of the same compound?
Answer: The relative viability was 0.177.

Question: What about the relative viability ([5]; first compound 20 µM) of the same compound?
Answer: The relative viability was 0.178.

Question: And the relative viability ([6]; first compound 0.2 µM)?
Answer: Its relative viability is 0.479.

Question: What about the relative viability ([6]; first compound 0.6325 µM) of the same compound?
Answer: Its relative viability is 0.441.

Question: What about the relative viability ([6]; first compound 2 µM) of the same compound?
Answer: Its relative viability is 0.504.

Question: What about the relative viability ([6]; first compound 6.325 µM) of the same compound?
Answer: The relative viability was 0.416.

Question: What about the relative viability ([6]; first compound 20 µM) of the same compound?
Answer: Its relative viability is 0.617.

Question: What about the relative viability ([7]; first compound 0.2 µM) of the same compound?
Answer: The relative viability was 0.929.

Question: And the relative viability ([7]; first compound 0.6325 µM)?
Answer: Its relative viability is 0.864.

Question: What about the relative viability ([7]; first compound 2 µM) of the same compound?
Answer: The relative viability was 0.414.

Question: And the relative viability ([7]; first compound 6.325 µM)?
Answer: Its relative viability is 0.843.

Question: And the relative viability ([7]; first compound 20 µM)?
Answer: The relative viability was 0.158.

Question: And the relative viability ([8]; first compound 0.2 µM)?
Answer: Its relative viability is 0.732.

Question: And the relative viability ([8]; first compound 0.6325 µM)?
Answer: The relative viability was 0.674.

Question: What about the relative viability ([8]; first compound 2 µM) of the same compound?
Answer: The relative viability was 0.843.

Question: What about the relative viability ([8]; first compound 6.325 µM) of the same compound?
Answer: Its relative viability is 0.622.

Question: And the relative viability ([8]; first compound 20 µM)?
Answer: The relative viability was 0.193.

Question: And the relative viability ([9]; first compound 0.2 µM)?
Answer: Its relative viability is 0.582.

Question: What about the relative viability ([9]; first compound 0.6325 µM) of the same compound?
Answer: Its relative viability is 0.625.

Question: And the relative viability ([9]; first compound 2 µM)?
Answer: The relative viability was 0.548.

Question: What about the relative viability ([9]; first compound 6.325 µM) of the same compound?
Answer: Its relative viability is 0.498.

Question: What about the relative viability ([9]; first compound 20 µM) of the same compound?
Answer: The relative viability was 0.29.

Question: And the relative viability ([10]; first compound 0.2 µM)?
Answer: Its relative viability is 0.852.

Question: What about the relative viability ([10]; first compound 0.6325 µM) of the same compound?
Answer: The relative viability was 0.969.

Question: And the relative viability ([10]; first compound 2 µM)?
Answer: The relative viability was 0.733.

Question: And the relative viability ([10]; first compound 6.325 µM)?
Answer: The relative viability was 0.745.

Question: What about the relative viability ([10]; first compound 20 µM) of the same compound?
Answer: The relative viability was 0.257.
